Structures are written as SMILES. Positions count from the first letter of the chain named.

Common to all, as to assay: α-Gal A activity in lysates of transfected HEK-293 cells ± migalastat (HEK assay)
What all share (assay type): cell-based

For assay [1], the target named is T1, α-Gal A mutant form G360A (Homo sapiens, UniProt P06280, G360A).
T1 construct: expressed in transfected cells; host or cells: HEK-293
T1 sequence (P06280 32-429 G360A): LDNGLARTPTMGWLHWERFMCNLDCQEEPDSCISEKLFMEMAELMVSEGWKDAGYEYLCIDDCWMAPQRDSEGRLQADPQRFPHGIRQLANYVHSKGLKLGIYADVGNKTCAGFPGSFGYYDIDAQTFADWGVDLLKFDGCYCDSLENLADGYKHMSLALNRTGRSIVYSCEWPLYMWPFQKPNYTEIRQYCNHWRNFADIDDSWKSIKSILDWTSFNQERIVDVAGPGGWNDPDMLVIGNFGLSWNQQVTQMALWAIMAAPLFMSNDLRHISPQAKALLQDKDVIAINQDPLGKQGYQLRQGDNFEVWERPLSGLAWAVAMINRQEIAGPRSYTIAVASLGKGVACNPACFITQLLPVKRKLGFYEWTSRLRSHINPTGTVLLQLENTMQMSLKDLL
An excerpt:
(§1) Such mutations or variants are also referred to herein as “HEK assay amenable” mutations or variants.
(§2) The α-Gal A activity is expressed as the nmoles of free 4-MU released per milligram of protein per hour (nmol/mg/hr).

Assay [2] deals with T2, α-Gal A mutant form N419D (Homo sapiens, UniProt P06280, N419D).
T2 construct: expressed in transfected cells; host or cells: HEK-293
T2 sequence (P06280 32-429 N419D): T1 sequence (P06280 32-429 G360A) with A329G, N388D
From the text: as §1, §2

Assay [3] has as its target T3, α-Gal A mutant form N53Y (Homo sapiens, UniProt P06280, N53Y).
T3 construct: expressed in transfected cells; host or cells: HEK-293
T3 sequence (P06280 32-429 N53Y): T1 sequence (P06280 32-429 G360A) with N22Y, A329G
From the text: as §1, §2

Assay [4] deals with T4, α-Gal A mutant form L180V (Homo sapiens, UniProt P06280, L180V).
T4 construct: expressed in transfected cells; host or cells: HEK-293
T4 sequence (P06280 32-429 L180V): T1 sequence (P06280 32-429 G360A) with L149V, A329G
From the text: as §1, §2

For assay [5], the target named is T5, α-Gal A mutant form G411S (Homo sapiens, UniProt P06280, G411S).
T5 construct: expressed in transfected cells; host or cells: HEK-293
T5 sequence (P06280 32-429 G411S): T1 sequence (P06280 32-429 G360A) with A329G, G380S
From the text: as §1, §2

Where [6] appears, read: 10 μM migalastat minus baseline.
[7] abbreviates: HEK-293 lysates, 10 μM migalastat 5 days, mean ± SEM.

With `OC[C@H]1NC[C@H](O)[C@@H](O)[C@H]1O` [migalastat, (2R,3S,4R,5S)-2-(hydroxymethyl) piperdine-3,4,5-triol], the “Absolute increase (% WT)” value in assay [1] (setting [6]) came to 7.5 % WT; in assay [2] (setting [6]), 12.6 % WT; in assay [3] (setting [6]), 34.5 % WT; in assay [4] (setting [6]), 36.2 % WT; in assay [5] (setting [6]), 22 % WT. Further, the Relative increase in assay [1] (10 μM migalastat ÷ baseline) stood at 1.28; in assay [2] (10 μM migalastat ÷ baseline) it was 1.37; in assay [3] (10 μM migalastat ÷ baseline), 2.04; in assay [4] (10 μM migalastat ÷ baseline) it was 1.97; in assay [5] (10 μM migalastat ÷ baseline), 1.58. Besides, the “10 μM migalastat α-Gal A activity” value in assay [1] (setting [7]) turned out to be 13443 ± 1048 nmol/mg/h; in assay [2] (setting [7]), 14558 ± 678 nmol/mg/h; in assay [3] (setting [7]) it was 22871 ± 2192 nmol/mg/h; in assay [4] (setting [7]) it was 25437 ± 1279 nmol/mg/h; in assay [5] (setting [7]) it was 17543 ± 867 nmol/mg/h. Moreover, the “10 μM migalastat α-Gal A activity (% WT)” value in assay [1] (setting [7]) is recorded as 31.3 ± 2.6 % WT; in assay [2] (setting [7]) it was 44.1 ± 2.9 % WT; in assay [3] (setting [7]) it was 68.5 ± 2.6 % WT; in assay [4] (setting [7]) it was 73.4 ± 2.9 % WT; in assay [5] (setting [7]) it was 61.1 ± 3.2 % WT.

Source of the values: patent US20230136297A1, “Methods Of Treating Fabry Disease In Patients Having A Mutation In The GLA Gene” (Amicus Therapeutics, Inc., priority 2020, published 2023).
